# Columns and labels:
# adjuvant arthritic rats [1] = assay: Adjuvant arthritis model, Example 1 (rhuIL-1ra IV infusion, oral methotrexate); assay type: in vivo, Male Lewis rats; details: rhuIL-1ra 5 mg/kg/hr continuous IV infusion from day 8; methotrexate 0.06 mg/kg oral days 0-14; termination day 15
# Experimental: Male Lewis rats (Charles River, Portage, Mich.) (5 per group) weighing at least 200 g were cannulated with jugular catheters and allowed to recover for several days. They were then placed in infusion cages and acclimated for a week prior to initiating adjuvant injections. On day 0, all treated rats were injected with 100 μl of Freunds Complete Adjuvant (Sigma Chemical Co., St. […] On day 8, treatment with E. coli-derived human recombinant IL-1 receptor antagonist (prepared generally in accordance with the teachings of U.S. Pat. […] Body weights were taken on day 0 and every other day from day 8 to termination on day 15. Caliper measurements and clinical scoring were done on day 8 and every other day until termination. At this time the animals' body, paw and spleen weights were determined.
# adjuvant arthritic rats [2] = assay: Adjuvant arthritis model, Example 2 (rhuIL-1ra IV infusion, oral methotrexate); assay type: in vivo, Male Lewis rats; details: rhuIL-1ra 5 mg/kg/hr continuous IV infusion from day 8; methotrexate 0.06 mg/kg oral days 0-14; termination day 15
# Experimental: (§1) Male Lewis rats (Charles River, Portage, Mich.) (5-7/group) weighing at least 200 g were cannulated with jugular catheters and allowed to recover for several days. They were then placed in infusion cages and acclimated for at least one week prior to initiating adjuvant injections. On day-0, all rats were injected with 100 μl of Freunds Complete Adjuvant (Sigma Chemical Co., St. […] Body weights were taken on day 0 and every other day from day 8 to termination on day 15. Caliper measurements and clinical scoring were done on day 8 and every other day until termination. At this time the animals' body, paw and spleen weights were determined.
# adjuvant arthritic rats [3] = assay: Adjuvant arthritis model, Example 3 (rhuIL-1ra subcutaneous infusion, methotrexate dose range); assay type: in vivo, Male Lewis rats; set-up: inhibition of final paw weight: dose or concentration left out as unconfirmed; details: rhuIL-1ra alone
# Experimental: as §1, with “250-300” for “200”, “in the subcutis of the dorsal back” for “with jugular catheters”, “4 days” for “one week”
# adjuvant arthritic rats [4] = assay: Adjuvant arthritis model, first Example 4 (rhuIL-1ra 5 mg/kg/hr infusion, methotrexate dose range); assay type: in vivo, Male Lewis rats; details: rhuIL-1ra alone
# Experimental: as §1, with “250-300” for “200”, “in the subcutis of the dorsal back” for “with jugular catheters”, “4 days” for “one week”
# EAE model = assay: EAE model, second Example 4 (integrated clinical score, weight gain); assay type: in vivo, Female Strain 13 guinea pigs
substance,measurement,setting,value
"rhuIL-1ra: E. coli-derived human recombinant IL-1 receptor antagonist (SEQ ID NO:2), in citrate buffer formulation",inhibition of arthritis (paw swelling),adjuvant arthritic rats [1],57%
same,inhibition of body weight change,adjuvant arthritic rats [1],25%
same,inhibition of splenomegaly (spleen weight),adjuvant arthritic rats [1],no significant benefit
same,inhibition of body weight change,adjuvant arthritic rats [2],no inhibition
same,inhibition of paw swelling,adjuvant arthritic rats [2],22%
same,inhibition of splenomegaly,adjuvant arthritic rats [2],24%
same,"inhibition of bone resorption, histologic evaluation of ankle joints",adjuvant arthritic rats [3],53%
same,"inhibition of inflammation, histologic evaluation of ankle joints",adjuvant arthritic rats [3],8%
same,"inhibition of swelling, ankle joint diameter over time (area under the curve)",adjuvant arthritic rats [3]; 5 mg/ml/hr sc infusion,6%
same,inhibition of final paw weight,"adjuvant arthritic rats [3]; continuous subcutaneous infusion, days 8-15",6%
same,"inhibition of bone resorption, histologic evaluation of ankle joints",adjuvant arthritic rats [4],53%
same,"inhibition of inflammation, histologic evaluation of ankle joints",adjuvant arthritic rats [4],8%
same,"inhibition of swelling, ankle joint diameter over time (area under the curve)",adjuvant arthritic rats [4]; 5 mg/kg/hr infusion,6%
same,inhibition of final paw weight,"adjuvant arthritic rats [4]; continuous subcutaneous infusion 5 mg/kg/hr, days 8-15",6%
same,attenuation of clinical symptoms/signs (integrated clinical score),"EAE model; rhuIL-1ra 10 mg/kg s.c. 3x a day from day 0, alone or with r-metIFN-con1 0.03 mg/kg s.c.",49%
same,attenuation of clinical symptoms/signs (integrated clinical score),"EAE model; rhuIL-1ra 100 mg/kg s.c. 3x a day from day 0, alone or with r-metIFN-con1 0.03 mg/kg s.c.",53%
